Data as given in ChEMBL document CHEMBL1909046, “DrugMatrix in vitro pharmacology data”.

Columns and labels:
Glycine receptor = Glycine receptor (Rattus norvegicus, UniProt P22771+P24524+P07727+P20781); format: cell membranes, Wistar, Spinal cord, Membrane; further: in other assays of this panel Not Active means under 50% inhibition at 10 µM
[1] = DRUGMATRIX: Phosphodiesterase PDE3 enzyme inhibition (substrate: [3H]cAMP + cAMP); format: tissue-based, Homo sapiens; settings: platelet; Not Active = under 50% inhibition at 10 µM
[2] = molecular target: Sigma non-opioid intracellular receptor 1 (Homo sapiens, UniProt Q99720); assay: DRUGMATRIX: Sigma1 radioligand binding (ligand: [3H] Haloperidol); format: cell membranes, Jurkat, Membrane; settings: Not Active = under 50% inhibition at 10 µM; for Ki: read-out: Ki
[3] = DRUGMATRIX: Purinergic P2X radioligand binding (ligand: [3H] alpha, beta-Methylene-ATP); format: cell membranes, Oryctolagus cuniculus, New Zealand albino, Urinary bladder, Membrane; settings: Not Active = under 50% inhibition at 10 µM
[4] = DRUGMATRIX: Phosphodiesterase PDE4 enzyme inhibition (substrate: [3H]cAMP + cAMP); settings: u-937; Not Active = under 50% inhibition at 10 µM
[5] = molecular target: 5-hydroxytryptamine receptor 6 (Homo sapiens, UniProt P50406); format: cell membranes, HeLa, Membrane; settings: for Ki: read-out: Ki; on all read-outs here: in other assays of this panel Not Active means under 50% inhibition at 10 µM
[6] = DRUGMATRIX: Calcium Channel Type L, Benzothiazepine radioligand binding (ligand: [3H] Diltiazem); format: cell membranes, Rattus norvegicus, Wistar, Brain, Membrane; settings: Not Active = under 50% inhibition at 10 µM
[7] = molecular target: T1, 5-hydroxytryptamine receptor 1A (Rattus norvegicus, UniProt P19327); format: cell membranes, CHO-K1, Membrane; settings: for Ki: read-out: Ki; on all read-outs here: in other assays of this panel Not Active means under 50% inhibition at 10 µM
T1 sequence (P19327 whole entry): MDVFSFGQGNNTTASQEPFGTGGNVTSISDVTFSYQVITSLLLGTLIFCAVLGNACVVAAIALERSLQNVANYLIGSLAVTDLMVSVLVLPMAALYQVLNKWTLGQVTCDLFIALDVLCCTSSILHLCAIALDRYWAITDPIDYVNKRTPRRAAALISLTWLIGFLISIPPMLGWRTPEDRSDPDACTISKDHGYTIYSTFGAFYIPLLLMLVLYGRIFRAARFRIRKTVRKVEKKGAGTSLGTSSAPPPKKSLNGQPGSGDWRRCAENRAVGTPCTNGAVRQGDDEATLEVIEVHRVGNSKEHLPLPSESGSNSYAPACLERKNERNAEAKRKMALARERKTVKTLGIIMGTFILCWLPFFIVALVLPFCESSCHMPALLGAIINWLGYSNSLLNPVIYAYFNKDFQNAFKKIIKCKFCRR

[8] = DRUGMATRIX: Glutamate, NMDA, Phencyclidine radioligand binding (ligand: [3H] TCP); format: cell membranes, Rattus norvegicus, Wistar, Cerebral cortex, Membrane; settings: Not Active = under 50% inhibition at 10 µM
[9] = molecular target: T2, Polyunsaturated fatty acid lipoxygenase ALOX15 (Oryctolagus cuniculus, UniProt P12530); assay: biochemical; format: tissue-based, Reticulocytes;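 further: inhibition of 15-lipoxygenase enzyme activity measured with linoleic acid as the substrate; in other assays of this panel Not Active means under 50% inhibition at 10 µM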
T2 sequence (P12530 whole entry): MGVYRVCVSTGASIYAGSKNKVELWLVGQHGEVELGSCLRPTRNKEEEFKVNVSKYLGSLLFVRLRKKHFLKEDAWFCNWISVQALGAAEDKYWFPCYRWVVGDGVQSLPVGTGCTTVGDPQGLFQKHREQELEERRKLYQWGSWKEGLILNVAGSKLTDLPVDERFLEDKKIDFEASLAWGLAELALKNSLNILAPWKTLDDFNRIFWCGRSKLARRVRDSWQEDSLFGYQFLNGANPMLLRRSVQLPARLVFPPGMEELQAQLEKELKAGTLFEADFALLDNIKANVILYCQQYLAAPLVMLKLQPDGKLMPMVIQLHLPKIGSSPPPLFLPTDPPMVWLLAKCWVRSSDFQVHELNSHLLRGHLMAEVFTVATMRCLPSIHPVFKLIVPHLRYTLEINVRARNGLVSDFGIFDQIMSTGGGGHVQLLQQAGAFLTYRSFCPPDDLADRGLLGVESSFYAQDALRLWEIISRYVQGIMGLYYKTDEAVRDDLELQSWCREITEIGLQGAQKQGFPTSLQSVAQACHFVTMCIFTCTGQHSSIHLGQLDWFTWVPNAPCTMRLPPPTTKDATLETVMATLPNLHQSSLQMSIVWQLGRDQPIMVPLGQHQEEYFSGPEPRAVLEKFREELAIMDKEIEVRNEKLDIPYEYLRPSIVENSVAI

Substance-K receptor = molecular target: T3, Substance-K receptor (Homo sapiens, UniProt P21452); format: cell membranes, CHO, Membrane; settings: for Ki: read-out: Ki
T3 sequence (P21452 whole entry): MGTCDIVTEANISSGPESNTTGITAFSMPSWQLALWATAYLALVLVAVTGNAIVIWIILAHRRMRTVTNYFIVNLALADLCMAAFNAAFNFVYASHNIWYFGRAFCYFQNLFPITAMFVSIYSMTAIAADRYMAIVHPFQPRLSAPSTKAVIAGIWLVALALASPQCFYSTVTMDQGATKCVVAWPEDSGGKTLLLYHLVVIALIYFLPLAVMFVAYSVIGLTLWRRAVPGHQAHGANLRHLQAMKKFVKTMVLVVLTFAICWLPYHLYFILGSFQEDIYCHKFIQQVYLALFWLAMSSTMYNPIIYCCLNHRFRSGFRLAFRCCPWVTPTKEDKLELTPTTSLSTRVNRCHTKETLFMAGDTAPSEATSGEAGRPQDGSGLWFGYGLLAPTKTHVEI

[10] = DRUGMATRIX: Calcium Channel Type L, Phenylalkylamine radioligand binding (ligand: [3H] (-)-Desmethoxyverapamil (D-888)); format: cell membranes, Rattus norvegicus, Wistar, Brain, Membrane; settings: Not Active = under 50% inhibition at 10 µM
[11] = DRUGMATRIX: Sigma2 radioligand binding (ligand: [3H] Ifenprodil); format: cell membranes, Rattus norvegicus, Wistar, Brain, Membrane; settings: Not Active = under 50% inhibition at 10 µM
[12] = molecular target: Tyrosine-protein kinase Lck (Homo sapiens, UniProt P06239); assay: DRUGMATRIX: Protein Tyrosine Kinase, LCK enzyme inhibition (substrate: Poly(Glu:Tyr)); format: cell-based, Insect cells; settings: Not Active = under 50% inhibition at 10 µM
Chain of Tyrosine-protein kinase Lck (P06239 whole entry): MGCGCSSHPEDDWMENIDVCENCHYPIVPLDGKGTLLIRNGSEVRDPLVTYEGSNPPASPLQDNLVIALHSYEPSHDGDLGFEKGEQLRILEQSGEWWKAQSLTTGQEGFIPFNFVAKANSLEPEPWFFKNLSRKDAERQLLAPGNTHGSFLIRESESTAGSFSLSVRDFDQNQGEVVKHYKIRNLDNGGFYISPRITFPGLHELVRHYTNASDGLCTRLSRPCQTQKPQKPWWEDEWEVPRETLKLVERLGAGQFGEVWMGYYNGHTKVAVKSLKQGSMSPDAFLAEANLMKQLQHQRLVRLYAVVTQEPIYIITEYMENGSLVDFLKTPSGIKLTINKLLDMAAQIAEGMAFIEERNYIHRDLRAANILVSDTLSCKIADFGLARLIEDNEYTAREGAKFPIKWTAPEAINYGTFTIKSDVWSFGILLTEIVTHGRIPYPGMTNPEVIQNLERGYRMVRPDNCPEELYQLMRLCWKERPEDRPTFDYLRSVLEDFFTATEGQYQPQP

Chain of 5-hydroxytryptamine receptor 6 (P50406 whole entry): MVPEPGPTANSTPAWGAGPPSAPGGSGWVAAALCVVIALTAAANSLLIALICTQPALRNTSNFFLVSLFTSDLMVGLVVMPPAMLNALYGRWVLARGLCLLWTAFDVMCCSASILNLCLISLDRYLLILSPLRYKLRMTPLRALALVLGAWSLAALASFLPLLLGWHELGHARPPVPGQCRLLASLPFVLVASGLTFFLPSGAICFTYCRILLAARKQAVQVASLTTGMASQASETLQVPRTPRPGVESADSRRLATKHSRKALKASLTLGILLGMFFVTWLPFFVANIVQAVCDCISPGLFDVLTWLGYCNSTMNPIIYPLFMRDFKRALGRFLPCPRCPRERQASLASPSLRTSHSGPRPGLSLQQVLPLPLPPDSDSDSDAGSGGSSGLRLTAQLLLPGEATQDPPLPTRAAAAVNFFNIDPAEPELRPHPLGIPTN
Chain of Sigma non-opioid intracellular receptor 1 (Q99720 whole entry): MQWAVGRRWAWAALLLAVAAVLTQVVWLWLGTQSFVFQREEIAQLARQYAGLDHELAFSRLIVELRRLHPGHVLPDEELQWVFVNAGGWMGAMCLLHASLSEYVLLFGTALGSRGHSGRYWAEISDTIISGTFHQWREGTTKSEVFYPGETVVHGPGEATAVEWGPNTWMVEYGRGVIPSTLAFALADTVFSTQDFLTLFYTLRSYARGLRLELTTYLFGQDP

SMILES	IC50 (Glycine receptor)	IC50 [1]	Ki [1]	IC50 ([2]; jurkat)	IC50 [3]	Ki [3]	IC50 [4]	Ki [4]	IC50 ([5]; hela)	IC50 [6]	Ki [6]	IC50 ([7]; cho-k1)	IC50 [8]	Ki [8]	IC50 ([9]; reticulocytes)	IC50 (Substance-K receptor; cho)	IC50 [10]	Ki [10]	IC50 [11]	IC50 ([12]; insect cells)	also measured
CN[C@@H]1[C@@H](O)[C@@H](O[C@@H]2[C@@H](O)[C@H](O[C@H]3OC(CN)=CC[C@H]3N)[C@@H](N)C[C@H]2N)OC[C@]1(C)O [SISOMICIN]	Not Active	Not Active	Not Active	Not Active	Not Active	Not Active	Not Active	Not Active	Not Active	Not Active	Not Active	Not Active	Not Active	Not Active	Not Active	Not Active	Not Active	Not Active	Not Active	Not Active	Ki [11]: Not Active
NNc1ccccc1 [PHENYLHYDRAZINE]	Not Active	Not Active	Not Active	Not Active	Not Active	Not Active	Not Active	Not Active	Not Active	Not Active	Not Active	Not Active	Not Active	Not Active	–	Not Active	Not Active	Not Active	Not Active	Not Active	IC50 ([9]; read-out: IC50): 1670 nM; Ki [11]: Not Active
C[C@](N)(Cc1ccc(O)cc1)C(=O)O [METYROSINE]	Not Active	Not Active	Not Active	Not Active	Not Active	Not Active	Not Active	Not Active	Not Active	Not Active	Not Active	Not Active	Not Active	Not Active	Not Active	Not Active	Not Active	Not Active	Not Active	Not Active	Ki [11]: Not Active
CN1CCN2c3ccccc3Cc3ccccc3C2C1 (stereo unspecified) [MIANSERIN]	Not Active	–	–	Not Active	–	–	–	–	–	–	–	–	–	–	Not Active	Not Active	–	–	–	Not Active	IC50 ([7]; read-out: IC50): 872 nM; Ki [7]: 498 nM
CC(=O)[C@H]1CC[C@H]2[C@@H]3CCC4=CC(=O)CC[C@]4(C)[C@H]3CC[C@]12C [PROGESTERONE]	Not Active	Not Active	Not Active	–	Not Active	Not Active	Not Active	Not Active	Not Active	Not Active	Not Active	Not Active	Not Active	Not Active	Not Active	Not Active	Not Active	Not Active	Not Active	Not Active	Ki [11]: Not Active
CSc1ccc2c(c1)N(CCC1CCCCN1C)c1ccccc1S2 (stereo unspecified) [THIORIDAZINE]	Not Active	–	–	–	–	–	–	–	–	–	–	–	–	–	Not Active	Not Active	–	–	–	Not Active	IC50 ([2]; read-out: IC50): 363 nM; Ki [2]: 153 nM; IC50 ([5]; read-out: IC50): 71 nM; Ki [5]: 33 nM; IC50 ([7]; read-out: IC50): 60 nM; Ki [7]: 34 nM
CN(C)CCCN1c2ccccc2CCc2ccc(Cl)cc21 [CLOMIPRAMINE]	Not Active	–	–	–	–	–	–	–	–	–	–	Not Active	–	–	Not Active	Not Active	–	–	–	Not Active	IC50 ([2]; read-out: IC50): 1360 nM; Ki [2]: 572 nM; IC50 ([5]; read-out: IC50): 245 nM; Ki [5]: 114 nM
CC(C)(O)c1ccccc1CC[C@@H](SCC1(CC(=O)O)CC1)c1cccc(/C=C/c2ccc3ccc(Cl)cc3n2)c1 [MONTELUKAST]	Not Active	–	–	Not Active	–	–	–	–	Not Active	–	–	Not Active	–	–	Not Active	–	–	–	–	Not Active	IC50 (Substance-K receptor; read-out: IC50): 3820 nM; Ki (Substance-K receptor): 1270 nM
Clc1ccccc1C(c1ccccc1)(c1ccccc1)n1ccnc1 [CLOTRIMAZOLE]	Not Active	–	–	Not Active	–	–	–	–	–	–	–	–	–	–	Not Active	–	–	–	–	Not Active	IC50 ([5]; read-out: IC50): 12500 nM; Ki [5]: 5820 nM; IC50 ([7]; read-out: IC50): 17700 nM; Ki [7]: 10100 nM; IC50 (Substance-K receptor; read-out: IC50): 10100 nM; Ki (Substance-K receptor): 3380 nM
COC(=O)[C@@H]1[C@H]2C[C@H]3c4[nH]c5ccccc5c4CCN3C[C@@H]2CC[C@@H]1O [YOHIMBINE]	Not Active	Not Active	Not Active	Not Active	Not Active	Not Active	Not Active	Not Active	–	Not Active	Not Active	–	Not Active	Not Active	Not Active	Not Active	Not Active	Not Active	Not Active	Not Active	Ki [11]: Not Active
COc1cccc(C2(O)CCCCC2CN(C)C)c1 (stereo unspecified) [TRAMADOL]	Not Active	–	–	Not Active	–	–	–	–	Not Active	–	–	Not Active	–	–	Not Active	Not Active	–	–	–	Not Active	–
O=C(CCCN1CCC(O)(c2ccc(Cl)cc2)CC1)c1ccc(F)cc1 [HALOPERIDOL]	Not Active	–	–	–	–	–	–	–	Not Active	–	–	Not Active	–	–	Not Active	Not Active	–	–	–	Not Active	–
COc1ccc(CCN2CCC(Nc3nc4ccccc4n3Cc3ccc(F)cc3)CC2)cc1 [ASTEMIZOLE]	Not Active	–	–	–	–	–	–	–	–	–	–	–	–	–	Not Active	–	–	–	–	–	IC50 ([7]; read-out: IC50): 767 nM; Ki [7]: 438 nM; IC50 (Substance-K receptor; read-out: IC50): 2990 nM; Ki (Substance-K receptor): 995 nM; IC50 ([12]; read-out: IC50): 19900 nM
